Data reported in ChEMBL document CHEMBL3769337, “Inspired by magnolol: design of NSAID-based compounds with excellent anti-inflammatory effects” (2015).
Active and inactive are the calls of the source. The calls are words filed in the database; no cut-off is given here.

How the values were obtained:
Mus musculus [1] = test: Antiinflammatory activity in TPA induced BALB/c mouse ear edema model assessed as decrease in weight of ear punches at 0.75 uM administered topically for 6 mins prior to TPA challenge measured after 6 hrs relative to control; format: functional; parameters: scale not given: the % may be the effect or the level left
Mus musculus [2] = test: (§1) Antiinflammatory activity in TPA induced BALB/c mouse ear edema model assessed as decrease in inflammatory cell infiltration level administered topically for 6 mins prior to TPA challenge measured after 6 hrs by Hematoxylin and Eosin staining based microscopy; format: functional, organism-based
Mus musculus [3] = test: Antiinflammatory activity in TPA induced BALB/c mouse ear edema model assessed as morphological alterations administered topically for 6 mins prior to TPA challenge measured after 6 hrs by Hematoxylin and Eosin staining based microscopy; format: functional, organism-based
Mus musculus [4] = test: Decrease in TPA induced IL-1beta levels in TPA induced BALB/c mouse ear edema model administered topically for 6 mins prior to TPA challenge measured after 6 hrs by immunohistochemical analysis; format: functional, organism-based
Mus musculus [5] = test: Decrease in TPA induced IL6 levels in TPA induced BALB/c mouse ear edema model administered topically for 6 mins prior to TPA challenge measured after 6 hrs by immunohistochemical analysis; format: functional, organism-based
Mus musculus [6] = test: Decrease in TPA induced TNF-alpha levels in TPA induced BALB/c mouse ear edema model administered topically for 6 mins prior to TPA challenge measured after 6 hrs by immunohistochemical analysis; format: functional, organism-based
Mus musculus [7] = test: In vivo inhibition of TPA induced p65 translocation form cytoplasm to nucleus in TPA induced BALB/c mouse ear edema model administered topically for 6 mins prior to TPA challenge measured after 6 hrs by immunohistochemical analysis; format: functional, organism-based
Mus musculus [8] = test: Decrease in nuclear level of phosphorylated p65 in TPA induced BALB/c mouse ear edema model administered topically for 6 mins prior to TPA challenge measured after 6 hrs by immunohistochemical analysis; format: functional, organism-based
Mus musculus [9] = test: In vivo inhibition of TPA induced NF-kappa-B transcriptional activity in TPA induced BALB/c mouse ear edema model administered topically for 6 mins prior to TPA challenge measured after 6 hrs by immunohistochemical analysis; format: functional, organism-based
Mus musculus [10] = test: In vivo inhibition of TPA induced I-kappa-B-alpha phosphorylation in TPA induced BALB/c mouse ear edema model administered topically for 6 mins prior to TPA challenge measured after 6 hrs by immunohistochemical analysis; format: functional, organism-based
Mus musculus [11] = test: In vivo inhibition of TPA induced IKK activity in TPA induced BALB/c mouse ear edema model administered topically for 6 mins prior to TPA challenge measured after 6 hrs by immunohistochemical analysis; format: functional, organism-based
Mus musculus [12] = test: Antiinflammatory activity in TPA induced BALB/c mouse ear edema model assessed as decrease in weight of ear punches administered topically for 6 mins prior to TPA challenge measured after 6 hrs relative to control; format: functional; parameters: concentration or dose not given beside the values; scale not given: the % may be the effect or the level left
Mus musculus [13] = test: Antiinflammatory activity in TPA induced BALB/c mouse ear edema model assessed as decrease in weight of ear punches compound co-treated with diclofenac at 1:1 compound to diclofenac ratio administered topically for 6 mins prior to TPA challenge measured after 6 hrs relative to control; format: functional; parameters: scale not given: the % may be the effect or the level left
Mus musculus [14] = test: Antiinflammatory activity in TPA induced BALB/c mouse ear edema model assessed as decrease in weight of ear punches compound co-treated with diflunisal at 1:1 compound to diflunisal ratio administered topically for 6 mins prior to TPA challenge measured after 6 hrs relative to control; format: functional; parameters: scale not given: the % may be the effect or the level left
Mus musculus [15] = test: Antiinflammatory activity in TPA induced BALB/c mouse ear edema model assessed as decrease in weight of ear punches compound co-treated with flufenamic acid at 1:1 compound to flufenamic acid ratio administered topically for 6 mins prior to TPA challenge measured after 6 hrs relative to control; format: functional; parameters: scale not given: the % may be the effect or the level left
Mus musculus [16] = test: Antiinflammatory activity in TPA induced BALB/c mouse ear edema model assessed as decrease in weight of ear punches compound co-treated with naproxen at 1:1 compound to naproxen ratio administered topically for 6 mins prior to TPA challenge measured after 6 hrs relative to control; format: functional; parameters: scale not given: the % may be the effect or the level left
Mus musculus [17] = test: Antiinflammatory activity in TPA induced BALB/c mouse ear edema model assessed as decrease in weight of ear punches compound co-treated with ketoprofen at 1:1 compound to ketoprofen ratio administered topically for 6 mins prior to TPA challenge measured after 6 hrs relative to control; format: functional; parameters: scale not given: the % may be the effect or the level left
Mus musculus [18] = test: Antiinflammatory activity in TPA induced BALB/c mouse ear edema model assessed as decrease in weight of ear punches compound co-treated with flufenamic acid at 1:2 compound to flufenamic acid ratio administered topically for 6 mins prior to TPA challenge measured after 6 hrs relative to control; format: functional; parameters: scale not given: the % may be the effect or the level left
Mus musculus [19] = test: Antiinflammatory activity in TPA induced BALB/c mouse ear edema model assessed as decrease in weight of ear punches compound co-treated with naproxen at 1:2 compound to naproxen ratio administered topically for 6 mins prior to TPA challenge measured after 6 hrs relative to control; format: functional; parameters: scale not given: the % may be the effect or the level left
Mus musculus [20] = test: Antiinflammatory activity in TPA induced BALB/c mouse ear edema model assessed as decrease in weight of ear punches compound co-treated with ketoprofen at 1:2 compound to ketoprofen ratio administered topically for 6 mins prior to TPA challenge measured after 6 hrs relative to control; format: functional; parameters: scale not given: the % may be the effect or the level left
Mus musculus [21] = test: as §1, with “level compound cotreated with ketoprofen at 1:1 compound to ketoprofen ratio” for “level”; format: functional, organism-based
Mus musculus [22] = test: Antiinflammatory activity in TPA induced BALB/c mouse ear edema model assessed as decrease in weight of ear punches at 3 uM administered topically for 6 mins prior to TPA challenge measured after 6 hrs relative to control; format: functional; parameters: scale not given: the % may be the effect or the level left
Mus musculus [23] = test: Antiinflammatory activity in TPA induced BALB/c mouse ear edema model assessed as decrease in weight of ear punches at 1.5 uM administered topically for 6 mins prior to TPA challenge measured after 6 hrs relative to control; format: functional; parameters: scale not given: the % may be the effect or the level left
Mus musculus [24] = test: Antiinflammatory activity in TPA induced BALB/c mouse ear edema model assessed as decrease in weight of ear punches at 0.325 uM administered topically for 6 mins prior to TPA challenge measured after 6 hrs relative to control; format: functional; parameters: scale not given: the % may be the effect or the level left
Mus musculus [25] = test: Antiinflammatory activity in TPA induced BALB/c mouse ear edema model assessed as decrease in weight of ear punches at 0.1 uM administered topically for 6 mins prior to TPA challenge measured after 6 hrs relative to control; format: functional; parameters: scale not given: the % may be the effect or the level left

Question: How did the Activity (Mus musculus [1]) turn out when C=CCc1ccc(OC(=O)c2ccccc2Nc2cccc(C(F)(F)F)c2)c(-c2cc(CC=C)ccc2OC(=O)c2ccccc2Nc2cccc(C(F)(F)F)c2)c1 was run?
Answer: The Activity was “<=90%”.

Question: C=CCc1ccc(O)c(-c2cc(CC=C)ccc2OC(=O)c2cc(-c3ccc(F)cc3F)ccc2O)c1 was tested. Which Activity (Mus musculus [1]) did it give?
Answer: Its Activity is “<=90%”.

Question: Which Activity (Mus musculus [1]) does the source give for C=CCc1ccc(OC(=O)C(C)c2cccc(C(=O)c3ccccc3)c2)c(-c2cc(CC=C)ccc2OC(=O)C(C)c2cccc(C(=O)c3ccccc3)c2)c1 (stereo unspecified) here?
Answer: Its Activity is “<=90%”.

Question: How did the Activity (Mus musculus [1]) turn out when C=CCc1ccc(O)c(-c2cc(CC=C)ccc2OC(=O)c2ccccc2Nc2cccc(C(F)(F)F)c2)c1 was run?
Answer: The Activity was “<=90%”.

Question: How did the Activity (Mus musculus [2]) turn out when C=CCc1ccc(O)c(-c2cc(CC=C)ccc2OC(=O)C(C)c2cccc(C(=O)c3ccccc3)c2)c1 (stereo unspecified) was run?
Answer: Its Activity is “Active”.

Question: What about the Activity (Mus musculus [3]) of the same compound?
Answer: The Activity was “Active”.

Question: What about the Activity (Mus musculus [4]) of the same compound?
Answer: The Activity was “Active”.

Question: What about the Activity (Mus musculus [5]) of the same compound?
Answer: The Activity was “Active”.

Question: And the Activity (Mus musculus [6])?
Answer: Its Activity is “Active”.

Question: What about the inhibition (Mus musculus [7]) of the same compound?
Answer: The inhibition was “Active”.

Question: What about the Activity (Mus musculus [8]) of the same compound?
Answer: Its Activity is “Active”.

Question: And the inhibition (Mus musculus [9])?
Answer: The inhibition was “Active”.

Question: And the inhibition (Mus musculus [10])?
Answer: Its inhibition is “Active”.

Question: And the inhibition (Mus musculus [11])?
Answer: Its inhibition is “Active”.

Question: What about the Activity (Mus musculus [1]) of the same compound?
Answer: The Activity was “<=90%”.

Question: For C=CCc1ccc(OC(=O)[C@@H](C)c2ccc3cc(OC)ccc3c2)c(-c2cc(CC=C)ccc2OC(=O)[C@@H](C)c2ccc3cc(OC)ccc3c2)c1, which Activity (Mus musculus [1]) is on record?
Answer: Its Activity is “<=90%”.

Question: How did the Activity (Mus musculus [1]) turn out when C=CCc1ccc(O)c(-c2cc(CC=C)ccc2OC(=O)[C@@H](C)c2ccc3cc(OC)ccc3c2)c1 was run?
Answer: Its Activity is “<=90%”.

Question: For C=CCc1ccc(O)c(-c2cc(CC=C)ccc2OC(=O)Cc2ccccc2Nc2c(Cl)cccc2Cl)c1, which Activity (Mus musculus [1]) is on record?
Answer: The Activity was “<=90%”.

Question: How did the Activity (Mus musculus [1]) turn out when C=CCc1ccc(OC(=O)CC2(CC)OCCc3c2[nH]c2c(CC)cccc32)c(-c2cc(CC=C)ccc2OC(=O)CC2(CC)OCCc3c2[nH]c2c(CC)cccc32)c1 (stereo unspecified) was run?
Answer: Its Activity is “inactive”.

Question: With C=CCc1ccc(OC(=O)Cc2ccccc2Nc2c(Cl)cccc2Cl)c(-c2cc(CC=C)ccc2OC(=O)Cc2ccccc2Nc2c(Cl)cccc2Cl)c1 as the compound, how does the Activity (Mus musculus [1]) read?
Answer: Its Activity is “inactive”.

Question: Which Activity (Mus musculus [1]) does the source give for C=CCc1ccc(OC(=O)c2cc(-c3ccc(F)cc3F)ccc2O)c(-c2cc(CC=C)ccc2OC(=O)c2cc(-c3ccc(F)cc3F)ccc2O)c1 here?
Answer: Its Activity is “inactive”.

Question: Which Activity (Mus musculus [1]) does the source give for C=CCc1ccc(OC(=O)c2ccccc2Nc2cccc(C)c2C)c(-c2cc(CC=C)ccc2OC(=O)c2ccccc2Nc2cccc(C)c2C)c1 here?
Answer: Its Activity is “inactive”.

Question: C=CCc1ccc(OC(=O)c2ccccc2O)c(-c2cc(CC=C)ccc2OC(=O)c2ccccc2O)c1 was tested. Which Activity (Mus musculus [1]) did it give?
Answer: The Activity was “inactive”.

Question: O=C(O)Cc1ccccc1Nc1c(Cl)cccc1Cl [DICLOFENAC] was tested. Which Activity (Mus musculus [12]) did it give?
Answer: Its Activity is 78.3%.

Question: O=C(O)c1cc(-c2ccc(F)cc2F)ccc1O [DIFLUNISAL] was tested. Which Activity (Mus musculus [12]) did it give?
Answer: The Activity was 80.5%.

Question: For O=C(O)c1ccccc1Nc1cccc(C(F)(F)F)c1 [FLUFENAMIC ACID], which Activity (Mus musculus [12]) is on record?
Answer: Its Activity is 75.8%.

Question: With CC(C(=O)O)c1cccc(C(=O)c2ccccc2)c1 (stereo unspecified) [KETOPROFEN] as the compound, how does the Activity (Mus musculus [12]) read?
Answer: Its Activity is 10.9%.

Question: What about the Activity (Mus musculus [2]) of the same compound?
Answer: Its Activity is “Active”.

Question: With C=CCc1ccc(O)c(-c2cc(CC=C)ccc2O)c1 [MAGNOLOL] as the compound, how does the Activity (Mus musculus [12]) read?
Answer: The Activity was “Dose-dependent effect”.

Question: And the Activity (Mus musculus [12]; record 2)?
Answer: Its Activity is 52.2%.

Question: And the Activity (Mus musculus [13])?
Answer: The Activity was 87.9%.

Question: And the Activity (Mus musculus [14])?
Answer: The Activity was 94.9%.

Question: What about the Activity (Mus musculus [15]) of the same compound?
Answer: The Activity was 70.4%.

Question: What about the Activity (Mus musculus [16]) of the same compound?
Answer: Its Activity is 40.2%.

Question: What about the Activity (Mus musculus [17]) of the same compound?
Answer: Its Activity is 16.6%.

Question: And the Activity (Mus musculus [18])?
Answer: Its Activity is 54.2%.

Question: What about the Activity (Mus musculus [19]) of the same compound?
Answer: The Activity was 92.8%.

Question: What about the Activity (Mus musculus [20]) of the same compound?
Answer: Its Activity is 72.7%.

Question: What about the Activity (Mus musculus [2]) of the same compound?
Answer: Its Activity is “Active”.

Question: And the Activity (Mus musculus [21])?
Answer: The Activity was “Active”.

Question: And the Activity (Mus musculus [22])?
Answer: Its Activity is 96.7%.

Question: What about the Activity (Mus musculus [23]) of the same compound?
Answer: Its Activity is 91.7%.

Question: What about the Activity (Mus musculus [1]) of the same compound?
Answer: The Activity was 58.3%.

Question: And the Activity (Mus musculus [24])?
Answer: The Activity was 16.7%.

Question: What about the Activity (Mus musculus [25]) of the same compound?
Answer: Its Activity is 8.3%.

Question: For COc1ccc2cc([C@H](C)C(=O)O)ccc2c1 [NAPROXEN], which Activity (Mus musculus [12]) is on record?
Answer: Its Activity is 46%.
